Active and inactive are the calls of the source. The rule behind the calls is not given here.
Experiments:
[1] = molecular target: Kappa-type opioid receptor (Homo sapiens) (UniProt P41145); test: kappa (h) (KOP) Eurofins-Cerep binding assay; parameters: ligand concentration 0.5 nM; conditions: filed as agonist, Compound concentration 10.0 uM
[2] = molecular target: Endothelin receptor type B (Homo sapiens, UniProt P24530); test: Eurofins cellular functional assay - Antagonist (EDNRB)
[3] = molecular target: Dual specificity mitogen-activated protein kinase kinase 2 (Homo sapiens) (UniProt P36507); conditions: Compound concentration 1000.0 nM
[4] = molecular target: 5-hydroxytryptamine receptor 1D (Homo sapiens) (UniProt P28221); conditions: Compound concentration 10.0 uM
[5] = molecular target: 5-hydroxytryptamine receptor 2B (Homo sapiens) (UniProt P41595); conditions: Compound concentration 10.0 uM
[6] = molecular target: D(4) dopamine receptor (Homo sapiens) (UniProt P21917); conditions: Compound concentration 10.0 uM
[7] = molecular target: D(1B) dopamine receptor (Homo sapiens) (UniProt P21918); conditions: Compound concentration 10.0 uM
[8] = molecular target: Delta-type opioid receptor (Homo sapiens) (UniProt P41143); conditions: Compound concentration 10.0 uM
[9] = molecular target: Kappa-type opioid receptor (Homo sapiens) (UniProt P41145); conditions: Compound concentration 10.0 uM
[10] = molecular target: GABA-A receptor; anion channel (Rattus norvegicus) (UniProt O09028+P15431+P18506+P18508+P19969+P20236+P23574+P23576+P28471+P28473+P30191+P62813+P63079+P63138+Q91ZM7+Q9ES14); conditions: Compound concentration 10.0 uM
[11] = molecular target: Histamine H1 receptor (Homo sapiens) (UniProt P35367); conditions: Compound concentration 10.0 uM
[12] = molecular target: T1, Alpha-1B adrenergic receptor (Homo sapiens) (UniProt P35368); conditions: Compound concentration 10.0 uM
T1 sequence (whole entry): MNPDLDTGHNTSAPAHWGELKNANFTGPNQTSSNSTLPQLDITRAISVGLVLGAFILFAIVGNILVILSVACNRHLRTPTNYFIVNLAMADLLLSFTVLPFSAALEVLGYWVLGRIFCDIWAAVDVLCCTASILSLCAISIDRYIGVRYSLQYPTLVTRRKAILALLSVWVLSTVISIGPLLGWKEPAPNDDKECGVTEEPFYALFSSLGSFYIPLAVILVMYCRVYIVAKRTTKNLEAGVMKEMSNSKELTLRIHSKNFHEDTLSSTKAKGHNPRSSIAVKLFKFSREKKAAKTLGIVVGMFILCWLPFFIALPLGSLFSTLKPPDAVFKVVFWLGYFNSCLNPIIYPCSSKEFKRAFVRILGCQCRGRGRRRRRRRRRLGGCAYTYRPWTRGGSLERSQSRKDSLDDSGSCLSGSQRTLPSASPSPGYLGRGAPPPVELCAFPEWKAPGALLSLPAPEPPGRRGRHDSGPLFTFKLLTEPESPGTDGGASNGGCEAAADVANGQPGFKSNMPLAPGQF

[13] = molecular target: T2, Alpha-2A adrenergic receptor (Homo sapiens) (UniProt P08913); conditions: Compound concentration 10.0 uM
T2 sequence (whole entry): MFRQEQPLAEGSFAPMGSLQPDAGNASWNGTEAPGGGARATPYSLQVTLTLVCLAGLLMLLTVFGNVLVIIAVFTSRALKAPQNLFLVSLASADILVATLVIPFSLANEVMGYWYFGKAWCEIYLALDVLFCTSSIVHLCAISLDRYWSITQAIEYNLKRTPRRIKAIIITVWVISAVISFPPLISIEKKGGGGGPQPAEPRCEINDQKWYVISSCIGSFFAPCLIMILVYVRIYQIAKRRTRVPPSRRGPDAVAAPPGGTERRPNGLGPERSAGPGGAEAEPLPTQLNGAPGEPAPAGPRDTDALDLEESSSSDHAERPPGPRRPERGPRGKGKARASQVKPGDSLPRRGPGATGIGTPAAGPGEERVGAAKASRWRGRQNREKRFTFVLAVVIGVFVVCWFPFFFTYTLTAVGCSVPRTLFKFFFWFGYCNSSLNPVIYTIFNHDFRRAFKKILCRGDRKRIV

[14] = molecular target: T3, Alpha-2B adrenergic receptor (Homo sapiens) (UniProt P18089); conditions: Compound concentration 10.0 uM
T3 sequence (whole entry): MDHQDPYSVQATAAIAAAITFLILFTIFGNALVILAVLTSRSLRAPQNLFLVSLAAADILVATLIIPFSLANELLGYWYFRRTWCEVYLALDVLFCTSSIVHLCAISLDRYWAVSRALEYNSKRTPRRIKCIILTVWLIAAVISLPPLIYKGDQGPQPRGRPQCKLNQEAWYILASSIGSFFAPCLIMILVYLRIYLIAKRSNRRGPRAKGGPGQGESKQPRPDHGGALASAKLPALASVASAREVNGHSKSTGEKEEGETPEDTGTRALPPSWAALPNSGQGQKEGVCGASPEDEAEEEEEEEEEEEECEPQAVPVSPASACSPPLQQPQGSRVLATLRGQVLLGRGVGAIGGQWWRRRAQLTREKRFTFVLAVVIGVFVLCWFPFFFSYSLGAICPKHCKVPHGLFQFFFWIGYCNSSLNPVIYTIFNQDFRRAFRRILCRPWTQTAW

[15] = molecular target: Alpha-2C adrenergic receptor (Homo sapiens) (UniProt P18825); conditions: Compound concentration 10.0 uM
[16] = molecular target: T4, Muscarinic acetylcholine receptor M2 (Homo sapiens) (UniProt P08172); conditions: Compound concentration 10.0 uM
T4 sequence (whole entry): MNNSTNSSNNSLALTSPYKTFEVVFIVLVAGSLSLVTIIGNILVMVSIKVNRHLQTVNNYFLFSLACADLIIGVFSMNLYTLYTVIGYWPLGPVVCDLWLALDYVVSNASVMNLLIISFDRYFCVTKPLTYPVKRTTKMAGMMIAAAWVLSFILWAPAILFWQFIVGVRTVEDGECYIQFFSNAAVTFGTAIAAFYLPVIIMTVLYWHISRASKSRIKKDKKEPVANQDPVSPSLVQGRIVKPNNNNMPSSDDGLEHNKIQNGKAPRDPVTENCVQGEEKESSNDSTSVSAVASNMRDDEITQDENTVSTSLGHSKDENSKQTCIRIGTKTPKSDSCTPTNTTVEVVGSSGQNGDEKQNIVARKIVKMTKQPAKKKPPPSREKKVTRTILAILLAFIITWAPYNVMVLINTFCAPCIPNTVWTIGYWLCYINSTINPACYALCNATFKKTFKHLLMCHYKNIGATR

[17] = molecular target: Muscarinic acetylcholine receptor M3 (Homo sapiens) (UniProt P20309); conditions: Compound concentration 10.0 uM
[18] = molecular target: Sigma non-opioid intracellular receptor 1 (Homo sapiens) (UniProt Q99720); conditions: Compound concentration 10.0 uM
Chain of Sigma non-opioid intracellular receptor 1 (Homo sapiens) (Q99720 whole entry): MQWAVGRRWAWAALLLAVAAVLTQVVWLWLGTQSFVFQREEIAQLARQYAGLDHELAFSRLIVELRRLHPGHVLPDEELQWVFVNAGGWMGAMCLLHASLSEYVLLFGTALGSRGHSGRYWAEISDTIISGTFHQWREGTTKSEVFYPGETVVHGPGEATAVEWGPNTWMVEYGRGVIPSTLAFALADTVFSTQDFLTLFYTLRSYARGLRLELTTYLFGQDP

Chain of Kappa-type opioid receptor (Homo sapiens) (P41145 whole entry): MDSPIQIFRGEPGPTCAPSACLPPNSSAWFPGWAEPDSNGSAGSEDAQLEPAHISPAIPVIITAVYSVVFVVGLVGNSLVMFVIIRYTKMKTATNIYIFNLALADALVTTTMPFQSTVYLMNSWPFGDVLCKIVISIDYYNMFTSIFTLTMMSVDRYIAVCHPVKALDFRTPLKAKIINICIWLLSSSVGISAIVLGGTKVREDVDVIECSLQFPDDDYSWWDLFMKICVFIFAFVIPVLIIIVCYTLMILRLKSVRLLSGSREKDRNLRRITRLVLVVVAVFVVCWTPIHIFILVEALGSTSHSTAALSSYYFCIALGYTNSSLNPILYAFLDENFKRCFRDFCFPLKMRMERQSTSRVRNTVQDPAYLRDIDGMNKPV
Chain of Dual specificity mitogen-activated protein kinase kinase 2 (Homo sapiens) (P36507 whole entry): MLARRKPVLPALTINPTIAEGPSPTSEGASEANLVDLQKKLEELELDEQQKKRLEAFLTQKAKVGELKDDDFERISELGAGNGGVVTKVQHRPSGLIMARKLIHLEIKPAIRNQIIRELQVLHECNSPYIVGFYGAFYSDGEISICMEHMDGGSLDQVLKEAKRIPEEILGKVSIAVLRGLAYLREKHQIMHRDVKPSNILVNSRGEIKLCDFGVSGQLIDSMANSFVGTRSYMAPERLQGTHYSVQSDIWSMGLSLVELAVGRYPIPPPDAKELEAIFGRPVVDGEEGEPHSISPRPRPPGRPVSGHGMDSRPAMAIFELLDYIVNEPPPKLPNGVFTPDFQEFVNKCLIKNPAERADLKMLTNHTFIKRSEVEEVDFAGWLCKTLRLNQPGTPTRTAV
Chain of Histamine H1 receptor (Homo sapiens) (P35367 whole entry): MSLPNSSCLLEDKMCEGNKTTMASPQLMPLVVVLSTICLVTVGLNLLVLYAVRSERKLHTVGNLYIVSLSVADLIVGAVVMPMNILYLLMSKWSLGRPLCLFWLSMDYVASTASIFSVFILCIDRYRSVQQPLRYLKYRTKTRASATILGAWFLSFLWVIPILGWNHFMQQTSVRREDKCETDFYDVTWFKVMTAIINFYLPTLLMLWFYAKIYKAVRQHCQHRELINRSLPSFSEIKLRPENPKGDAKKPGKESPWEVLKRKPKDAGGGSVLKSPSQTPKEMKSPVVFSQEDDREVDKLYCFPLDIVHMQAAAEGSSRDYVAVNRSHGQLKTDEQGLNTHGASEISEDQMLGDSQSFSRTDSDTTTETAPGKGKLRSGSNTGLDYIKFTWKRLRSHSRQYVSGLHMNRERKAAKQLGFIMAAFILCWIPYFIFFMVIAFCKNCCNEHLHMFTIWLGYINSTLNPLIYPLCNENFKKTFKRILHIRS
Chain of D(1B) dopamine receptor (Homo sapiens) (P21918 whole entry): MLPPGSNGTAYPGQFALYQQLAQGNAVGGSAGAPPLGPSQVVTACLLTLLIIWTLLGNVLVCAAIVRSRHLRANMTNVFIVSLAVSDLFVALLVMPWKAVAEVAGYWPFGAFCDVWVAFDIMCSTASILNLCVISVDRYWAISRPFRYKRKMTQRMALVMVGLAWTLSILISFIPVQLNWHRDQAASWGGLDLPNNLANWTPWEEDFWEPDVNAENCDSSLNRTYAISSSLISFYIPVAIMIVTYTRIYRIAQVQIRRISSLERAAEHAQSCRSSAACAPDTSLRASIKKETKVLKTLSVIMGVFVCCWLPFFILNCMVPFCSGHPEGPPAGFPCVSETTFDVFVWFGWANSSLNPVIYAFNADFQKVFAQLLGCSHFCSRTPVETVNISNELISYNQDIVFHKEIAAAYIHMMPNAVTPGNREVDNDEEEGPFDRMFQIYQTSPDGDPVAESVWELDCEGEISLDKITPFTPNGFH
Chain of Delta-type opioid receptor (Homo sapiens) (P41143 whole entry): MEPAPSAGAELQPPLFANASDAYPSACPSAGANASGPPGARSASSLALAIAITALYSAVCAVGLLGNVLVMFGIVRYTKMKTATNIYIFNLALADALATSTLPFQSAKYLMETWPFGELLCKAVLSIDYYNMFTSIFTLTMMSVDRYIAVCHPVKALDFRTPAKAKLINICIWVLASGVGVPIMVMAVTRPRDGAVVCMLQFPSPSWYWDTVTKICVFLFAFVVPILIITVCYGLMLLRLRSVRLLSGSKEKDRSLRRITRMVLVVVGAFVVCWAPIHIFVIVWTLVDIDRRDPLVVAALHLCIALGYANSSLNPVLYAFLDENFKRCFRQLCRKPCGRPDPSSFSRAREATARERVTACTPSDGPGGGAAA
Chain of 5-hydroxytryptamine receptor 2B (Homo sapiens) (P41595 whole entry): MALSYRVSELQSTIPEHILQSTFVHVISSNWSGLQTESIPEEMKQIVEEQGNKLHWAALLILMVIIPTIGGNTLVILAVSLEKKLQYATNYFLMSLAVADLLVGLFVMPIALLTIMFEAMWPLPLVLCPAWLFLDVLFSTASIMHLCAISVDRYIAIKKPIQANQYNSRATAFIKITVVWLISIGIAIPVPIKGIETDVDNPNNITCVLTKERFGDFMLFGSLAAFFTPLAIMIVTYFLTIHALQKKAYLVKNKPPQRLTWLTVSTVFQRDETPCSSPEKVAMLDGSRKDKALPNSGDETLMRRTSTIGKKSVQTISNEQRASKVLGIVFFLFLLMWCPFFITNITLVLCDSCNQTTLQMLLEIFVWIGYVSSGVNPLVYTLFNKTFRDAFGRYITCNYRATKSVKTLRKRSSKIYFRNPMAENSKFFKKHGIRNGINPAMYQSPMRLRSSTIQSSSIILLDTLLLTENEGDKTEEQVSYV
Chain of Muscarinic acetylcholine receptor M3 (Homo sapiens) (P20309 whole entry, looked up): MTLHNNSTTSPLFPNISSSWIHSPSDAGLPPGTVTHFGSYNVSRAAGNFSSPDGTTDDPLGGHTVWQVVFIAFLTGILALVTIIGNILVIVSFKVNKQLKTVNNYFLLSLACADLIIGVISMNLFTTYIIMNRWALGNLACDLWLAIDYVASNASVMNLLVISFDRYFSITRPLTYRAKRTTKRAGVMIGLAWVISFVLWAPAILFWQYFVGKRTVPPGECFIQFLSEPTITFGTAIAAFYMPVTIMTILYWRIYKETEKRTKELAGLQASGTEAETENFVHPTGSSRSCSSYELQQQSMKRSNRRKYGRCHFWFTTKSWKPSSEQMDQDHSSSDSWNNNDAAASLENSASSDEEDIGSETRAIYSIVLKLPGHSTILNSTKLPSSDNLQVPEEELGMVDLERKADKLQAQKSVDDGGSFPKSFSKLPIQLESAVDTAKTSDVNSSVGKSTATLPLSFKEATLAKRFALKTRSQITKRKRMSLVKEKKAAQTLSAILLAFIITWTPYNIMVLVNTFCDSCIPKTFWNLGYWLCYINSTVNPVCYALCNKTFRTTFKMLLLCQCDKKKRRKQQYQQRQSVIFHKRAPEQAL
Chain of 5-hydroxytryptamine receptor 1D (Homo sapiens) (P28221 whole entry): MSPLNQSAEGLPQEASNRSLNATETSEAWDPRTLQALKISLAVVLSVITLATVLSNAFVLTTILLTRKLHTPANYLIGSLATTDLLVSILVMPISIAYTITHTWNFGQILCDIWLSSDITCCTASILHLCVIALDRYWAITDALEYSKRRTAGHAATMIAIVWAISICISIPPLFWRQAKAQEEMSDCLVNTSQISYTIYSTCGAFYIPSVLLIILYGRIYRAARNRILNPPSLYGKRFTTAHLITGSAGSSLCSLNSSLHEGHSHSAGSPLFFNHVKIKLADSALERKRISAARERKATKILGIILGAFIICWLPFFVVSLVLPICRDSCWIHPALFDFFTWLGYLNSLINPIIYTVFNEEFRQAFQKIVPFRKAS
Chain of Endothelin receptor type B (P24530 whole entry): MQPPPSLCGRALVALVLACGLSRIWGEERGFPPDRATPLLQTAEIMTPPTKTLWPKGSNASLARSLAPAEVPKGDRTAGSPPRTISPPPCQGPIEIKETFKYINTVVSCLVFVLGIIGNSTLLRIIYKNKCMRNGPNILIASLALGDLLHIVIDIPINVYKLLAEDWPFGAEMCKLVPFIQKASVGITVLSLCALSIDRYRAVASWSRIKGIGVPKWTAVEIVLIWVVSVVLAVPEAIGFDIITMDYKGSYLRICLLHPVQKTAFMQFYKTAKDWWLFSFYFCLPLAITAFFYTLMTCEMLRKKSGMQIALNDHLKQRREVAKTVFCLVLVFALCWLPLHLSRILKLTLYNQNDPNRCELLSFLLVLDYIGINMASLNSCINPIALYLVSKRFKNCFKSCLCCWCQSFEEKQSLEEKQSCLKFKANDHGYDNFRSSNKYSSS
Chain of Alpha-2C adrenergic receptor (Homo sapiens) (P18825 whole entry): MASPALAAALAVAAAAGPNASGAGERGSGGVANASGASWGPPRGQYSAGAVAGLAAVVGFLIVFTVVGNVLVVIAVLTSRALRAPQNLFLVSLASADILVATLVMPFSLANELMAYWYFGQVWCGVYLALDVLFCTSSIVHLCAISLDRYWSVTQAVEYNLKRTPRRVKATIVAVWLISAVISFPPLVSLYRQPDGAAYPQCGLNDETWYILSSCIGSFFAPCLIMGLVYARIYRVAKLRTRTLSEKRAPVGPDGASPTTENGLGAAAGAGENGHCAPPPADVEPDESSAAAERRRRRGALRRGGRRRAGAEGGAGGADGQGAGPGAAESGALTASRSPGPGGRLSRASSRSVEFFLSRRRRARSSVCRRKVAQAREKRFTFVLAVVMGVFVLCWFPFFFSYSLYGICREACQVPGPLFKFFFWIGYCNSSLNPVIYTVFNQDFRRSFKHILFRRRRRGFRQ

| Compound | % Inhibition of Control Specific Binding (Mean n=2) [1] | IC50 [2] | residual activity [3] | inhibition [4] | inhibition [5] | inhibition [6] | inhibition [7] | inhibition [8] | inhibition [9] | inhibition [10] | inhibition [11] | inhibition [12] | inhibition [13] | inhibition [14] | inhibition [15] | inhibition [16] | inhibition [17] | inhibition [18] |
| --- | --- | --- | --- | --- | --- | --- | --- | --- | --- | --- | --- | --- | --- | --- | --- | --- | --- | --- |
| CCCOc1ccc([C@H]2[C@H](C(=O)O)[C@@H](c3ccc4c(c3)OCO4)CN2CC(=O)Nc2c(CC)cccc2CC)cc1 [A-192621] | 31.9% | 6.5 nM (active) | 62% | -3.09% | 12.8% | -3.59% | 11% | 9.89% | 35.3% | 19.6% | 36% | -2.22% | 9.55% | 10.4% | 0.5% | -5.3% | -5.06% | 4.29% |
| CCCOc1ccc([C@@H]2[C@@H](C(=O)O)[C@H](c3ccc4c(c3)OCO4)CN2CC(=O)Nc2c(CC)cccc2CC)cc1 [A-1806262] | 54.1% | – | 89% | – | – | – | – | – | – | – | – | – | – | – | – | – | – | – |
